A word on the inhibition: it is the relative decrease from the control value, in per cent. A low value points to a response near the control.

Each structure is given as a SMILES string.

The results in this text go back to article PMC9370394, “New Monocyclic Terpenoid Lactones from a Brown Algae Sargassum macrocarpum as Monoamine Oxidase Inhibitors” (Plants, 2022).

The assay has as its target T1, human monoamine oxidase A (hMAO-A) (Homo sapiens, UniProt P21397).
T1 construct: gene MAOA
T1 sequence (P21397 1-527): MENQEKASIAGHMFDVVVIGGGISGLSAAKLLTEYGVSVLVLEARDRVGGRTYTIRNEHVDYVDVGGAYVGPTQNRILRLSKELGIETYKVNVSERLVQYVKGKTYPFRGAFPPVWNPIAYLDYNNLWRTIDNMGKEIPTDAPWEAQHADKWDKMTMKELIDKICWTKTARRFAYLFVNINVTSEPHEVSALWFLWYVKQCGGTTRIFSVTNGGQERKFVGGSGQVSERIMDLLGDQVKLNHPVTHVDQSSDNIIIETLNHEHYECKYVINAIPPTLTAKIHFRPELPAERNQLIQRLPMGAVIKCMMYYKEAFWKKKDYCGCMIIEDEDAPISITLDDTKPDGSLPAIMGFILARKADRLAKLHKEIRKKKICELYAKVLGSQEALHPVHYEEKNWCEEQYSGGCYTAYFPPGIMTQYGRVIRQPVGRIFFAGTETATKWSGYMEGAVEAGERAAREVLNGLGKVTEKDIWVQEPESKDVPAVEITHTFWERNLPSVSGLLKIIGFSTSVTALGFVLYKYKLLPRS
Kind of assay: MAO-Glo luminescence enzyme assay, single concentration of […]. The format is biochemical.

In turn, `CC(=O)CC/C=C1/CC[C@H](C(C)(C)O)OC1=O` [compound 1, 6R-(2-hydroxypropan-2-yl)-3Z-(4-oxopentylidene)tetrahydro-2H-pyran-2-one] had an inhibition at 200 µM of 42.2 ± 2.68%.
